The record followed here is patent publication US8552202B2, “Furo[3, 2-B] pyrrol-3-ones as cathespin S inhibitors” (Amura Therapeutics Limited, priority 2008, dated 2013).

Holding throughout (format): biochemical
One assay concerns the target Human liver cathepsin L (Homo sapiens (Human), UniProt P07711). In words: In vitro cathepsin Ki inhibition measurements, cathepsin L. Particulars: read-out: In vitro Ki (nM) vs Cath L. Here is the method:
(§1) Stock solutions of substrate or inhibitor were made up to 10 mM in 100% dimethylsulfoxide (DMSO) (Rathburns, Glasgow, U.K.) and diluted as appropriately required. In all cases the DMSO concentration in the assays was maintained at less than 1% (vol./vol.). The equilibrium inhibition constants (Ki^ss) for each compound were measured under steady-state conditions monitoring enzyme activity as a function of inhibitor concentration. The values were calculated on the assumption of pure competitive behaviour (Cornish-Bowden, A. Fundamentals of enzyme kinetics Portland Press; 1995, 93-128.).
Human liver cathepsin L (0.25 nM final, Athens Research and Technology, GA, USA) was routinely assayed in 10 mM bis-tris propane; pH 6.5 containing 1 mM EDTA, 5 mM 2-mercaptoethanol, 1 mM CaCl2 and 4 μM Ac-Phe-Arg-AMC ([S]=KM) (Bachem).
(§2) The apparent inhibition constant (Ki) for each compound was determined on the basis that inhibition was reversible and occurred by a pure-competitive mechanism. The Ki values were calculated, from the dependence of enzyme activity as a function of inhibitor concentration, by direct regression analysis (Prism v 3.02) using Equation 2 (Cornish-Bowden, A., 1995.).
(§3) In situations where the apparent dissociation constant (Ki^app) approached the enzyme concentrations, the Ki^app values were calculated using a quadratic solution in the form described by Equation 3 (Morrison, J. F. Trends Biochem. Sci., 7, 102-105, 1982; Morrison, J. F. Biochim. Biophys. Acta. 185, 269-286, 1969: Stone, S. R. and Hofsteenge, J. Biochemistry, 25, 4622-4628, 1986).
(§4) Curves were fitted by non-linear regression analysis (Prism) using a fixed value for the enzyme concentration. Equation 4 was used to account for the substrate kinetics, where ‘Ki’ is the inhibition constant, ‘[So]’ is the initial substrate concentration and ‘KM^app’ is the apparent macroscopic binding (Michaelis) constant for the substrate (Morrison, 1982).

Assay [1] deals with Human recombinant cathepsin V (Homo sapiens (Human), UniProt O60911). Briefly: In vitro cathepsin Ki inhibition measurements, cathepsin V. Particulars: read-out: In vitro Ki (nM) vs Cath V. Here is the method: as §1
Chain of Human recombinant cathepsin V (O60911 114-334): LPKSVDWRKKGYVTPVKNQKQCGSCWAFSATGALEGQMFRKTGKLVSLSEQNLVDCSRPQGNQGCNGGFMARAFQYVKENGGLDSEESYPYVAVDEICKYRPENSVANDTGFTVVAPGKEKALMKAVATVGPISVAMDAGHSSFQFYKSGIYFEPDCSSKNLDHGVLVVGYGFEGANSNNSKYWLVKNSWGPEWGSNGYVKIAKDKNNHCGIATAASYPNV
Human recombinant cathepsin V (0.25 nM final, Merck Biosciences) was routinely assayed in 100 mM sodium acetate; pH 5.5 containing 10 mM L-cysteine, 0.001% (vol./vol.) zwittergent 3-12 (Merck Biosciences) and 5 μM Z-Leu-Arg-AMC (KM=0.5 μM) (Amura).
as §2, §3, §4

In assay [2] the target is Human recombinant cathepsin S (Homo sapiens (Human), UniProt P25774). Briefly: In vitro cathepsin Ki inhibition measurements, cathepsin S. Particulars: for Ki: read-out: In vitro Ki (nM) vs Cath S; for selectivity against other mammalian cathepsins (in words): cathepsin S over other mammalian cathepsins. Here is the method: as §1, §2, §3, §4
Chain of Human recombinant cathepsin S (P25774 115-331): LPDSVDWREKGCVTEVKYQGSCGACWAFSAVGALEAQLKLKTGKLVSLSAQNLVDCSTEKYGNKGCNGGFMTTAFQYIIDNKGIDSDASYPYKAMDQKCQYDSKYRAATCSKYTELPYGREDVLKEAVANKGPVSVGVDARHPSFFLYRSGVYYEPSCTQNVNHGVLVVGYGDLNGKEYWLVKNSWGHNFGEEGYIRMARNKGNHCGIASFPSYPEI
A further assay has as its target Human liver cathepsin B (Homo sapiens (Human), UniProt P07858). In words: In vitro cathepsin Ki inhibition measurements, cathepsin B. The following applies: read-out: In vitro Ki (nM) vs Cath B. On the procedure:
as §1
Human liver cathepsin B (0.25 nM final; Merck Biosciences), was routinely assayed in 10 mM bis-tris propane; pH 6.5 containing 1 mM EDTA, 5 mM 2-mercaptoethanol, 1 mM CaCl2 and 60 μM Z-Phe-Arg-AMC ([S]=KM) (Bachem, Weil am Rhein, Germany).
as §2, §3
as §4, with “In Equation 3 ‘vi’ is the observed residual activity, ‘F’ is the difference between the maximum activity (i.e. in the absence of inhibitor) and minimum enzyme activity, ‘Eo’ is the total enzyme concentration, ‘Ki^app’ is the apparent dissociation constant and ‘Io’ is the inhibitor concentration. Curves” for “Curves”

The target in assay [3] is Human recombinant cathepsin K (Homo sapiens (Human), UniProt P43235). In words: In vitro cathepsin Ki inhibition measurements, cathepsin K. The following applies: read-out: In vitro Ki (nM) vs Cath K. Here is the method:
as §1
Human recombinant cathepsin K (0.25 nM final; B. Turk, Josef, Stefan Institute, Ljubljana, Slovenia), was routinely assayed in 100 mM sodium acetate; pH 5.5 containing 1 mM EDTA, 10 mM L-cysteine and 1.8 μM Z-Leu-Arg-AMC ([S]=KM).
as §2, §3, §4

Chain of Human liver cathepsin L (P07711 114-333): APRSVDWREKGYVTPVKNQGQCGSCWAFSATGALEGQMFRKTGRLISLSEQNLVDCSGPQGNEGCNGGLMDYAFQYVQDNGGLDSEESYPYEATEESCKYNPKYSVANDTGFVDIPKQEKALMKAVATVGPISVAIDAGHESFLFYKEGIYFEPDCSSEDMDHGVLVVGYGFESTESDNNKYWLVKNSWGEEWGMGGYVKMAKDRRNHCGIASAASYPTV
Chain of Human recombinant cathepsin K (P43235 115-329): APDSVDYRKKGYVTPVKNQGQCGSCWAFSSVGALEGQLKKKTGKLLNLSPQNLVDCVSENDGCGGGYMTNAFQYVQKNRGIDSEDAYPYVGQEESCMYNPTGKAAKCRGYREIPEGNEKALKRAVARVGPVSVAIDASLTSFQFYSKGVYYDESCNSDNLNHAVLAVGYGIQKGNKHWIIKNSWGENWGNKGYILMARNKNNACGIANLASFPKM

One may read the Ki as a dissociation constant, usually derived from enzyme kinetics or from competition with a known ligand. `C[C@H]1CC[C@H]([C@H](NC(=O)c2cccc(-n3ccnc3)c2)C(=O)N2C[C@H](Cl)[C@H]3OCC(=O)[C@H]32)CC1`: the Ki was 4500 nM on Human liver cathepsin L; 3200 nM in assay [1]; 0.4 nM in assay [2]; 4000 nM on Human liver cathepsin B; more than 3000 nM in assay [3].
Consider `O=C(N[C@H](C(=O)N1CC[C@H]2OCC(=O)[C@H]21)C1CCCCC1)c1ccccc1` [Compound 1], for which the values for the Ki (on Human liver cathepsin L; in assay [1]; at Human liver cathepsin B) were 1250 nM, 1900 nM and more than 10000 nM, respectively.
On to `O=C(N[C@H](C(=O)N1C[C@H](F)[C@H]2OCC(=O)[C@H]21)C1CCCCC1)c1ccccc1` [Compound 2], for which the figures for the inhibition constant (Ki) (on Human liver cathepsin L; in assay [1]; at Human liver cathepsin B) were 580 nM, 700 nM and more than 7000 nM, respectively. In addition, the “selectivity verses cathepsin K (in words)” value in assay [2] (cathepsin S over cathepsin K) was “little selectivity”. Further, the “improvement in in vitro potency against human cathepsin S” value (“improvement in in vitro potency” below) in assay [2] (relative to Compound 1) worked out at 3.8 fold.
`O=C(N[C@H](C(=O)N1C[C@H](Cl)[C@H]2OCC(=O)[C@H]21)C1CCCCC1)c1ccccc1` [Compound 3]: the inhibition constant Ki on Human liver cathepsin L was 100 nM; in assay [1], 100 nM; on Human liver cathepsin B, 780 nM. Also, in assay [2] (cathepsin S over cathepsin K), the “selectivity verses cathepsin K” value is recorded as 4 fold. Moreover, the “improvement in in vitro potency” value in assay [2] (relative to Compound 1) is 27 fold.
As to `CC1CCC([C@H](NC(=O)c2ccccc2)C(=O)N2CC[C@H]3OCC(=O)[C@H]32)CC1` (stereo partly drawn) [Compound 4], the inhibition constant (Ki) on Human liver cathepsin L is more than 10000 nM; in assay [1], more than 10000 nM; in assay [2], 72 nM; on Human liver cathepsin B, more than 10000 nM; in assay [3], more than 4800 nM. Moreover, the “selectivity verses cathepsin K” value in assay [2] (cathepsin S over cathepsin K) is more than 65 fold. Moreover, in assay [2] (relative to Compound 1), the “improvement in in vitro potency” value is 3 fold.
With `C[C@H]1CC[C@H]([C@H](NC(=O)c2ccccc2)C(=O)N2C[C@H](F)[C@H]3OCC(=O)[C@H]32)CC1` [Compound 5], the Ki on Human liver cathepsin L is more than 10000 nM; in assay [1], more than 10000 nM; in assay [2], 28 nM; on Human liver cathepsin B, more than 10000 nM; in assay [3], more than 10000 nM. In addition, the “selectivity against other mammalian cathepsins (in words)” value in assay [2] was “high selectivity”. Moreover, in assay [2] (relative to EXAMPLE 1), the “less potent verses cathepsin S” value is listed as 5.6 fold.
On to `C[C@H]1CC[C@H]([C@H](NC(=O)c2ccccc2)C(=O)N2C[C@@H](Cl)[C@H]3OCC(=O)[C@H]32)CC1` [Compound 6], for which the Ki at Human liver cathepsin L was more than 10000 nM; in assay [1], more than 10000 nM; in assay [2] it was 75 nM; at Human liver cathepsin B, more than 10000 nM; in assay [3] it was more than 10000 nM. Besides, the “selectivity against other mammalian cathepsins (in words)” value in assay [2] is recorded as “high selectivity”. For the same molecule, the “less potent verses cathepsin S” value in assay [2] (relative to EXAMPLE 1) was 15 fold.
`O=C(N[C@H](C(=O)N1CC[C@H]2OCC(=O)[C@H]21)C1CCCCC1)c1cccc(-n2cnnn2)c1` [Compound 7]: the results for the inhibition constant (Ki) (at Human liver cathepsin L; in assay [1]; on Human liver cathepsin B) were more than 6500 nM, 5000 nM and more than 10000 nM, respectively.
On to `O=C(N[C@H](C(=O)N1C[C@H](F)[C@H]2OCC(=O)[C@H]21)C1CCCCC1)c1cccc(-n2cnnn2)c1` [Compound 8], for which the results for the Ki (at Human liver cathepsin L; in assay [1]; on Human liver cathepsin B) were 4000 nM, 2000 nM and 6000 nM, respectively. Besides, the “selectivity verses cathepsin K” value in assay [2] (cathepsin S over cathepsin K) came out at 6.8 fold. Moreover, in assay [2] (relative to Compound 7), the “improvement in in vitro potency” value was determined as 3.4 fold.
In the case of `O=C(N[C@H](C(=O)N1C[C@H](Cl)[C@H]2OCC(=O)[C@H]21)C1CCCCC1)c1cccc(-n2cnnn2)c1` [Compound 9], the Ki was more than 1200 nM on Human liver cathepsin L, 240 nM in assay [1] and 650 nM at Human liver cathepsin B. The “selectivity verses cathepsin K” value in assay [2] (cathepsin S over cathepsin K) was 7.5 fold. The “improvement in in vitro potency” value in assay [2] (relative to Compound 7) turned out to be 47 fold.
`C[C@H]1CC[C@H]([C@H](NC(=O)c2cccc(-n3cnnn3)c2)C(=O)N2CC[C@H]3OCC(=O)[C@H]32)CC1` [Compound 10]: the Ki is more than 10000 nM at Human liver cathepsin L; more than 10000 nM in assay [1]; 79 nM in assay [2]; more than 10000 nM on Human liver cathepsin B; more than 10000 nM in assay [3]. Moreover, the “selectivity verses cathepsin K” value in assay [2] (cathepsin S over cathepsin K) is given as more than 125 fold. Moreover, the “improvement in in vitro potency” value in assay [2] (relative to Compound 7) is listed as 2.2 fold.
Regarding `C[C@H]1CC[C@H]([C@H](NC(=O)c2cccc(-n3cnnn3)c2)C(=O)N2C[C@H](F)[C@H]3OCC(=O)[C@H]32)CC1` [Compound 11], the Ki on Human liver cathepsin L was more than 10000 nM; in assay [1] it was more than 10000 nM; in assay [2], 24 nM; on Human liver cathepsin B, more than 10000 nM; in assay [3] it was more than 10000 nM. Also, the “selectivity against other mammalian cathepsins (in words)” value in assay [2] is listed as “high selectivity”. For the same molecule, the “less potent verses cathepsin S” value in assay [2] (relative to EXAMPLE 2) was 11 fold.
As to `C[C@H]1CC[C@H]([C@H](NC(=O)c2cccc(-n3cnnn3)c2)C(=O)N2C[C@@H](Cl)[C@H]3OCC(=O)[C@H]32)CC1` [Compound 12], the Ki on Human liver cathepsin L is more than 10000 nM; in assay [1], more than 10000 nM; in assay [2] it was 55 nM; at Human liver cathepsin B it was more than 10000 nM; in assay [3], more than 10000 nM. The “selectivity against other mammalian cathepsins (in words)” value in assay [2] was “high selectivity”. Moreover, the “less potent verses cathepsin S” value in assay [2] (relative to EXAMPLE 2) is recorded as 25 fold.
Consider `O=C(N[C@H](C(=O)N1C[C@H](Cl)[C@H]2OCC(=O)[C@H]21)C1CCCCC1)c1cccc(-n2ccnc2)c1` [Compound 13], for which the Ki turned out to be 270 nM on Human liver cathepsin L, 170 nM in assay [1] and 440 nM on Human liver cathepsin B.
For the molecule `O=C(N[C@H](C(=O)N1C[C@@H](Cl)[C@H]2OCC(=O)[C@H]21)C1CCCCC1)c1cccc(-n2ccnc2)c1` [Compound 14], the Ki was determined as 1900 nM at Human liver cathepsin L, 1800 nM in assay [1] and 5000 nM on Human liver cathepsin B.
In the case of `C[C@H]1CC[C@H]([C@H](NC(=O)c2cccc(-n3ccnc3)c2)C(=O)N2C[C@H](F)[C@H]3OCC(=O)[C@H]32)CC1` [Compound 15], the inhibition constant Ki is more than 10000 nM at Human liver cathepsin L; more than 10000 nM in assay [1]; 15 nM in assay [2]; more than 10000 nM at Human liver cathepsin B; more than 10000 nM in assay [3].
`C[C@H]1CC[C@H]([C@H](NC(=O)c2ccccc2)C(=O)N2C[C@H](Cl)[C@H]3OCC(=O)[C@H]32)CC1` [EXAMPLE 1, N—((S)-2-((3aS,6S,6aS)-6-chloro-3-oxodihydro-2H-furo[3,2-b]pyrrol-4(5H,6H,6aH)-yl)-1-((1r,4S)-4-methylcyclohexyl)-2-oxoethyl)benzamide]: the Ki at Human liver cathepsin L is 1400 nM; in assay [1], more than 10000 nM; in assay [2], 5 nM; on Human liver cathepsin B it was more than 10000 nM; in assay [3], more than 10000 nM. In addition, the “selectivity against other mammalian cathepsins (in words)” value in assay [2] is on record as “high selectivity”. For the same molecule, the “improvement in in vitro potency” value in assay [2] (relative to Compound 1) turned out to be 45 fold; in assay [2] (relative to prior art compound (38)), 111 fold.
Consider `O=C(N[C@@H](CC1CCCCC1)C(=O)N1CC[C@H]2OCC(=O)[C@H]21)c1ccccc1` [compound (38), reference compound], for which the inhibitory constant (Ki) at Human liver cathepsin L is 1700 nM; in assay [1] it was 5700 nM; on Human liver cathepsin B, more than 10000 nM; in assay [3], more than 4000 nM.
